Assay [1] has as its target T1, Vasoactive intestinal polypeptide receptor 2 (Homo sapiens) (UniProt P41587).
T1 sequence (whole entry): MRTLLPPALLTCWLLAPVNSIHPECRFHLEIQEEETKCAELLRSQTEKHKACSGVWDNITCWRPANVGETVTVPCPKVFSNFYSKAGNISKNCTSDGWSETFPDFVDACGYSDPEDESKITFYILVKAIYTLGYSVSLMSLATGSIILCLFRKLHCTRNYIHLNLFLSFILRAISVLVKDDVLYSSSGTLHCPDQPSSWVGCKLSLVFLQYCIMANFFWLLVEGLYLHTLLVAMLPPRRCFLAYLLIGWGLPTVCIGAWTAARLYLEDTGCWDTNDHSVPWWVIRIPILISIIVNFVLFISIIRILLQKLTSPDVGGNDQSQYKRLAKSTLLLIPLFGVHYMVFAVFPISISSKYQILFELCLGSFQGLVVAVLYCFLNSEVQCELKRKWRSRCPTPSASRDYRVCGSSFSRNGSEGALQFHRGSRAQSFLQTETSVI
The assay can be described thus: Antagonist activity at recombinant human N-terminal signal peptide/FLAG epitope-tagged VIPR2 expressed in HEK293 cells co-expressing CAMYEL assessed as inhibition of VIP-induced cAMP accumulation at 1 uM preincubated for 5 mins with luciferin, coelenterazine H followed by VIP addition measured after 5 mins by BRET assay relative to control. Type of assay: functional, cell-based. A general note: cAMP levels reflect the balance of adenylyl cyclase and phosphodiesterase activity.

Assay [2] has as its target T2, Vasoactive intestinal polypeptide receptor 2 (Homo sapiens, UniProt P41587).
T2 sequence (P41587 whole entry): T1 sequence (whole entry)
The experiment in a line: Antagonist activity at human VIPR2 expressed in HEK293 cells assessed as inhibition of VIP-induced cAMP accumulation incubated for 30 mins by HTRF assay. The format is functional, cell-based.

For assay [3], the target named is T1, Vasoactive intestinal polypeptide receptor 2 (Homo sapiens). The assay can be described thus: Antagonist activity at recombinant human N-terminal signal peptide/FLAG epitope-tagged Rluc8-fused VIPR2 expressed in HEK293 cells assessed as inhibition of VIP-induced human mVenus-beta-arrestin2 binding at 5 uM preincubated for 5 mins with luciferin, coelenterazine H followed by VIP addition measured after 5 mins by BRET assay relative to control. Type of assay: cell-based.

The target is the same in assay [4]. The experiment in a line: Antagonist activity at recombinant human N-terminal signal peptide/FLAG epitope-tagged VIPR2 expressed in HEK293 cells co-expressing CAMYEL assessed as inhibition of VIP-induced cAMP accumulation at 5 uM preincubated for 5 mins with luciferin, coelenterazine H followed by VIP addition measured after 5 mins by BRET assay relative to control. The format is functional, cell-based.

The target of assay [5] is T2, Vasoactive intestinal polypeptide receptor 2. The experiment in a line: Antagonist activity at human VIPR2 expressed in HEK293 cells assessed as inhibition of VIP-induced beta-arrestin 2 binding incubated for 2 hrs by beta-galactosidase assay. The format is cell-based.
Assay [6] addresses T1, Vasoactive intestinal polypeptide receptor 2 (Homo sapiens). The assay can be described thus: Antagonist activity at recombinant human N-terminal signal peptide/FLAG epitope-tagged Rluc8-fused VIPR2 expressed in HEK293 cells assessed as inhibition of VIP-induced human mVenus-beta-arrestin2 binding at 0.5 uM preincubated for 5 mins with luciferin, coelenterazine H followed by VIP addition measured after 5 mins by BRET assay relative to control. The format is cell-based. (In BRET a luciferase serves as donor, and the signal depends on an acceptor being close.)

Assay [7] has the same target. The assay can be described thus: Antagonist activity at recombinant human N-terminal signal peptide/FLAG epitope-tagged Rluc8-fused VIPR2 expressed in HEK293 cells assessed as inhibition of VIP-induced human mVenus-beta-arrestin2 binding at 1 uM preincubated for 5 mins with luciferin, coelenterazine H followed by VIP addition measured after 5 mins by BRET assay relative to control. The format is cell-based.

For assay [8] the target is unchanged. The experiment in a line: Antagonist activity at recombinant human N-terminal signal peptide/FLAG epitope-tagged VIPR2 expressed in HEK293 cells co-expressing CAMYEL assessed as inhibition of VIP-induced cAMP accumulation at 0.5 uM preincubated for 5 mins with luciferin, coelenterazine H followed by VIP addition measured after 5 mins by BRET assay relative to control. The format is functional, cell-based.

Assay [9] has the same target. The assay can be described thus: Antagonist activity at recombinant human N-terminal signal peptide/FLAG epitope-tagged VIPR2 expressed in […] cells co-expressing CAMYEL assessed as inhibition of VIP-induced cAMP accumulation preincubated for 5 mins with luciferin, coelenterazine H followed by VIP addition measured after 5 mins by BRET assay. Type of assay: functional, cell-based.

In assay [10] the target is T2, Vasoactive intestinal polypeptide receptor 2. The experiment in a line: Antagonist activity at recombinant human N-terminal signal peptide/FLAG epitope-tagged Rluc8-fused VIPR2 expressed in HEK293 cells assessed as inhibition of VIP-induced human mVenus-beta-arrestin2 binding preincubated for 5 mins with luciferin, coelenterazine H followed by VIP addition measured after 5 mins by BRET assay. The format is cell-based.

These results are taken from ChEMBL document CHEMBL3879914, “Inhibitors of central nervous system vasoactive inhibitory peptide receptor 2” (2014).

The structures appear in SMILES notation. Activity calls are given as the source filed them. No cut-off for these calls is given here.

One may read the inhibition as the relative decrease from the control value, in per cent. By IC50 is commonly meant the point on the concentration scale where inhibition reaches its midpoint. With `O=C(N[C@H]1c2ccccc2C[C@H]1O)[C@H](Cc1ccccc1)C[C@H](O)CNS(=O)(=O)c1ccc([N+](=O)[O-])cc1`, the inhibition in assay [1] was 70.9 to 86.1%; in assay [3], 29.3 to 92%; in assay [4], 97.8 to 100%; in assay [6] it was 2.6 to 84.5%; in assay [7] it was -2.6 to 74.6%; in assay [8], 38.7 to 74.3%. Also, the IC50 came out at 3.8 µM in [2] and 2.3 µM in assay [5].

`CC(=O)c1ccc(S(=O)(=O)NC[C@@H](O)C[C@@H](Cc2ccccc2)C(=O)N[C@H]2c3ccccc3C[C@H]2O)cc1`: the inhibition is 61.1% in assay [1]; 88.7% in [3]; 96% in assay [4]; 58.3 to 92.3% in assay [6]; 78% in [7]; 38.6% in [8]. For the same compound, the inhibition result in assay [9] is “Active”.

As for `CCCCNC(=O)[C@@H](Cc1ccccc1)C[C@H](O)CNS(=O)(=O)c1ccc([N+](=O)[O-])cc1`, the inhibition in assay [1] is 0.6%; in assay [3], 20.7%; in assay [4], 6.2%; in assay [6], 13.4 to 26.8%; in assay [7] it was 20.4%; in [8] it was -1.5%. Also, the IC50 in assay [10] was 1800 µM.
